According to PubChem BioAssay (NCI):
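Briefly, cells in 96-well plates were exposed to five compound concentrations for 48 h, and endpoints were estimated by linear interpolation. The concentration for full growth arrest is given as TGI.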

Experiments:
Experiment in all cases: NCI tumour cell line growth inhibition, 48 h
DLD-1 colon = test system: DLD-1 colon
DMS 114 small cell lung = test system: DMS 114 small cell lung
HCT-15 colon = test system: HCT-15 colon
HL-60(TB) leukemia = test system: HL-60(TB) leukemia
HOP-18 NSCLC = test system: HOP-18 NSCLC
HOP-92 NSCLC = test system: HOP-92 NSCLC
K-562 leukemia = test system: K-562 leukemia
MCF7 breast = test system: MCF7 breast
SK-MEL-28 melanoma = test system: SK-MEL-28 melanoma
XF 498 CNS = test system: XF 498 CNS
M19-MEL melanoma = test system: M19-MEL melanoma
SNB-78 CNS = test system: SNB-78 CNS

Row | SMILES | TGI (DLD-1 colon) | TGI (DMS 114 small cell lung) | TGI (HCT-15 colon) | TGI (HL-60(TB) leukemia) | TGI (HOP-18 NSCLC) | TGI (HOP-92 NSCLC) | TGI (K-562 leukemia) | TGI (MCF7 breast) | TGI (SK-MEL-28 melanoma) | TGI (XF 498 CNS) | TGI (M19-MEL melanoma) | TGI (SNB-78 CNS)
1 | CCOC(=O)C(=Cc1ccc(Oc2ccccc2)cc1)C(=O)OCC | 5.21 µM | 10.9 µM | 6.35 µM | 5.54 µM | 26.8 µM | 16.2 µM | 5.27 µM | 18.5 µM | 7.49 µM | 11.3 µM |  | 
2 | O=C(CCC(=O)C(C(=O)c1ccccc1)c1ccccc1)Nc1cccc(C(F)(F)F)c1 (stereo not given) | > 100 µM | > 100 µM | > 100 µM | > 100 µM | > 100 µM | > 100 µM | > 100 µM |  |  | > 100 µM | > 100 µM | > 100 µM
3 | O=CC[C@H]1CCc2ccccc2C12CCC(=O)CC2 | > 100 µM | > 100 µM | > 100 µM | 65.8 µM |  | > 100 µM | > 100 µM |  |  | > 100 µM | > 100 µM | 
4 | Cc1ccc(S(=O)(=O)OCC23CCC(CC2)C2CC23)cc1 (stereo not given) | > 100 µM | > 100 µM | > 100 µM | 39.1 µM | > 100 µM | 87.5 µM | > 100 µM |  | > 100 µM |  | > 100 µM | 
5 | CCC(=O)c1c(NOC2OC(COC(C)=O)C(OC(C)=O)C(OC(C)=O)C2OC(C)=O)nc(OC)n(C)c1=O (stereo not given) | > 100 µM | > 100 µM | > 100 µM |  |  |  | > 100 µM |  | > 100 µM | > 100 µM | > 100 µM | > 100 µM
6 | O=[N+]([O-])c1cccc(-c2oc(C=Nc3ccccc3)c([N+](=O)[O-])c2-c2cccc([N+](=O)[O-])c2)c1 | > 100 µM | > 100 µM |  | > 100 µM |  | > 100 µM | > 100 µM |  | > 100 µM |  | > 100 µM | > 100 µM
7 | C1=CC=C2NCCCNC3=CC=CC=CC3=NCCCN=C2C=C1 | > 100 µM | > 100 µM | > 100 µM | > 100 µM |  | > 100 µM | > 100 µM |  | > 100 µM | > 100 µM | > 100 µM | > 100 µM
8 | O=C1C2C3C=CC(C2C(=O)N1COP(=O)(O)O)C1C2C(=O)N(COP(=O)(O)O)C(=O)C2C31 (stereo not given) | > 75.9 µM | > 58.8 µM | > 57.9 µM | 29.9 µM | > 100 µM | > 100 µM | > 100 µM |  | > 100 µM | > 100 µM | > 100 µM | > 100 µM
9 | NCCCNCCCCN(CCCN)/[N+]([O-])=N\O | > 100 µM | > 100 µM | > 100 µM | > 100 µM | > 100 µM | > 100 µM | > 100 µM |  | > 100 µM |  | > 100 µM | > 100 µM
10 | C=C(Br)N(CC)CC | > 100 µM | > 100 µM | > 100 µM | > 100 µM | > 100 µM | > 100 µM | > 100 µM |  | > 100 µM |  | > 100 µM | > 100 µM
11 | O=C(CC1(O)C(=O)Nc2c(Cl)cc(Cl)cc21)c1cccc2ccccc12 (stereo not given) | 33 µM | 35.6 µM | 31 µM | 26.5 µM | 32.2 µM |  | 36.6 µM |  | 34.1 µM | 34.8 µM |  | 46.6 µM
12 | COc1cc(OC)c(C2CC=Cc3c(OC)cc(OC)c(OC)c32)cc1OC (stereo not given) | > 100 µM | > 100 µM | > 100 µM | > 100 µM | > 100 µM | > 100 µM | > 100 µM |  | > 100 µM | > 100 µM | > 100 µM | > 100 µM
13 | O=C(Cc1nc2ccccc2s1)Nc1cccc(C(F)(F)F)c1 | 29.9 µM | 36.3 µM | 30.3 µM | 17.8 µM | 33.5 µM |  | 29.8 µM |  | 28.8 µM | 28.4 µM | 25.6 µM | 
14 | CC(=O)OC(CCC1(C)OC1COc1ccc(CCNC(=O)c2ccccc2)cc1)C(C)(C)OC(C)=O (stereo not given) | > 100 µM | 15.8 µM | > 100 µM | > 100 µM | > 100 µM | > 100 µM | > 100 µM |  | 91.8 µM |  | 69 µM | > 100 µM
15 | S=c1cc(S)sc2c1c(=S)sc1nc3ccccn3c(=S)c12 | > 100 µM | 40.1 µM | > 100 µM | 97.3 µM | > 100 µM | > 100 µM | > 100 µM |  | > 100 µM | > 100 µM | > 100 µM | > 100 µM
16 | C1CCN(c2nc(=[N+]3CCCCC3)ss2)CC1 | > 100 µM | > 100 µM | > 100 µM | > 100 µM | > 100 µM | > 100 µM | > 100 µM |  | > 100 µM | > 100 µM | > 100 µM | > 100 µM
17 | C[C@]1(CO)CCC[C@@]2(C)C1CC[C@H]1CC3C[C@]12CC[C@]3(C)O (stereo not given in full) | > 100 µM | > 100 µM | > 100 µM | 41.1 µM |  | > 100 µM | > 100 µM |  | > 100 µM | > 100 µM |  | > 100 µM
18 | COC1OC(COCc2ccc(Cl)cc2)C(OCc2ccc(Cl)cc2)C1N=[N+]=[N-] (stereo not given) |  | > 100 µM | > 100 µM |  | > 100 µM | > 100 µM | > 100 µM |  | > 100 µM | > 100 µM |  | > 100 µM
19 | Clc1ccc(C2SCc3nc4ccccc4n32)cc1Cl (stereo not given) | 25.2 µM | 36 µM | 28.4 µM | 40.7 µM |  | 27.4 µM | > 100 µM |  | 25.4 µM | 24.4 µM |  | 29.1 µM
20 | COc1cc2c3c(c1OC)-c1c(ccc4c1OCO4)CC3(C#N)N(C(=O)c1ccccc1)CC2 (stereo not given) | > 100 µM | > 100 µM | > 100 µM | > 100 µM |  | 77.9 µM | > 100 µM |  |  | 60.2 µM | > 100 µM | > 100 µM
